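48-hour exposure; five concentrations; linearly interpolated endpoints. GI50 = concentration required for 50% inhibition of growth. TGI marks complete inhibition of growth.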

Test systems include NCI-H460 lung; T-47D breast; OVCAR-8 ovarian; MDA-MB-231 breast; DU-145 prostate; OVCAR-3 ovarian; SK-MEL-28 melanoma; HT29 colon; SR leukemia.
Common to all, as to assay: NCI anticancer screen, dose series, 48 h

Regarding `COc1ccc(C2CC(c3cc(OC)c(OC)c(OC)c3)=NO2)cc1OCCCCOc1cc2c(cc1OC)C(=O)N1CCC[C@H]1C=N2` (some centres not stated), the GI50 in the test on NCI-H460 lung was 1850 nM; with T-47D breast, 1310 nM; in the test on OVCAR-8 ovarian, 2550 nM; in the test with MDA-MB-231 breast, 1150 nM; with DU-145 prostate, 2480 nM; with OVCAR-3 ovarian, 1940 nM. In addition, the GI50 is 2070 nM in the test with SK-MEL-28 melanoma, 2750 nM with HT29 colon and 1120 nM in the test with SR leukemia. Moreover, the TGI in the test on NCI-H460 lung was 4 µM; with T-47D breast, 4.11 µM; with OVCAR-8 ovarian, 7.74 µM; in the test on MDA-MB-231 breast, 2.61 µM; in the test with DU-145 prostate, 7.43 µM; in the test on OVCAR-3 ovarian it was 3.96 µM. In addition, the TGI in the test with SK-MEL-28 melanoma turned out to be 4.1 µM; with HT29 colon, 8.38 µM; in the test on SR leukemia, 3.26 µM.
Turning to `CCN(CC)CCOCC[C@H]1CC[C@H]2[C@@H]3[C@H](C)Cc4cc(OS(N)(=O)=O)ccc4[C@H]3CC[C@]12C`, the GI50 was 1230 nM in the test on NCI-H460 lung; 277 nM with T-47D breast; 2050 nM with OVCAR-8 ovarian; 1500 nM in the test on MDA-MB-231 breast; 1480 nM in the test with DU-145 prostate; 1210 nM in the test with OVCAR-3 ovarian. The GI50 is 1270 nM with SK-MEL-28 melanoma, 244 nM with HT29 colon and 329 nM in the test with SR leukemia. For the same compound, the TGI with NCI-H460 lung was 2.56 µM; in the test with T-47D breast, 2.94 µM; in the test on OVCAR-8 ovarian it was 5.67 µM; in the test on MDA-MB-231 breast it was 3.03 µM; with DU-145 prostate, 2.94 µM; with OVCAR-3 ovarian, 2.46 µM. The TGI in the test with SK-MEL-28 melanoma was 2.53 µM; in the test with HT29 colon, 1.03 µM; with SR leukemia it was 1.42 µM.
Consider `Cc1cc2nc(C(C)C(=O)c3ccc(Cl)cc3)c(=O)[nH]c2cc1C` (configuration not stated), for which the TGI in the test on NCI-H460 lung, in the test with T-47D breast, in the test with OVCAR-8 ovarian, in the test with MDA-MB-231 breast, in the test on DU-145 prostate and with OVCAR-3 ovarian was above 100 µM each time. In addition, the TGI with SK-MEL-28 melanoma was above 100 µM; in the test with HT29 colon it was 66.4 µM; in the test with SR leukemia, 97.6 µM.
As for `Nc1c(C(=O)c2cccc(CCCN3CCOCC3)c2)cnn1-c1ccc(F)cc1`, the GI50 was above 25000 nM in the test with NCI-H460 lung; above 23700 nM with T-47D breast; above 25000 nM in the test on OVCAR-8 ovarian; above 25000 nM in the test with MDA-MB-231 breast; above 25000 nM with DU-145 prostate; above 25000 nM in the test on OVCAR-3 ovarian. The GI50 in the test on SK-MEL-28 melanoma, in the test with HT29 colon and in the test with SR leukemia was above 25000 nM each time. The TGI with NCI-H460 lung, in the test on T-47D breast, in the test on OVCAR-8 ovarian, with MDA-MB-231 breast, in the test on DU-145 prostate and in the test on OVCAR-3 ovarian was above 25 µM throughout. Moreover, the TGI in the test on SK-MEL-28 melanoma, with HT29 colon and in the test on SR leukemia was above 25 µM throughout.
In the case of `COc1cccc2c1C(=O)C=CC2=O`, the TGI in the test with NCI-H460 lung is 32.6 µM; in the test on T-47D breast, 5.04 µM; in the test on OVCAR-8 ovarian, 9.97 µM; in the test on MDA-MB-231 breast, 4.76 µM; in the test on DU-145 prostate, 33.5 µM; in the test with OVCAR-3 ovarian it was 3.51 µM. For the same compound, the TGI in the test with SK-MEL-28 melanoma came out at 33.6 µM; in the test on HT29 colon it was 26.9 µM; in the test with SR leukemia it was 1.02 µM.
